Measured values reported in PubChem BioAssay AID248 (DTP/NCI, 2004).
“And” between values parts separate entries of the source, which are not always exact repeats. Identical values can stand only once. Inconclusive results and toxic doses are left out. Cut-off read from the data, not from the text of the source: active = T/C of 150% or more; inactive = T/C below 125%.

Test system: L1210 leukemia ip in BDF1 mice, survival T/C
Assay: NCI In Vivo Anticancer Drug Screen. Data for tumor model L1210 Leukemia (intraperitoneal) in B6D2F1 (BDF1) mice
Details: endpoint: mean survival time, higher = longer survival
In short: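 Survival endpoint. Drug-treated group vs vehicle group, expressed as T divided by C. Tumor passaged by transplantation.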

[1] = dose: 100.0 mg/kg/injection, schedule: Q01DX001 (ip), vehicle: saline with Tween-80
[2] = dose: 100.0 mg/kg/injection, schedule: Q04DX003 (ip), vehicle: saline with Tween-80
[3] = dose: 200.0 mg/kg/injection, schedule: Q04DX003 (ip), vehicle: saline with Tween-80
[4] = dose: 400.0 mg/kg/injection, schedule: Q04DX003 (ip), vehicle: saline with Tween-80
[5] = dose: 100.0 mg/kg/injection, schedule: Q01DX001 (ip), vehicle: Klucel (hydroxypropylcellulose) (HPC)
[6] = dose: 100.0 mg/kg/injection, schedule: Q01DX009 (ip), vehicle: Klucel (hydroxypropylcellulose) (HPC)
[7] = dose: 100.0 mg/kg/injection, schedule: Q04DX003 (ip), vehicle: Klucel (hydroxypropylcellulose) (HPC)
[8] = dose: 200.0 mg/kg/injection, schedule: Q01DX001 (ip), vehicle: Klucel (hydroxypropylcellulose) (HPC)
[9] = dose: 200.0 mg/kg/injection, schedule: Q01DX009 (ip), vehicle: Klucel (hydroxypropylcellulose) (HPC)
[10] = dose: 200.0 mg/kg/injection, schedule: Q04DX003 (ip), vehicle: Klucel (hydroxypropylcellulose) (HPC)
[11] = dose: 400.0 mg/kg/injection, schedule: Q01DX001 (ip), vehicle: Klucel (hydroxypropylcellulose) (HPC)
[12] = dose: 400.0 mg/kg/injection, schedule: Q04DX003 (ip), vehicle: Klucel (hydroxypropylcellulose) (HPC)
[13] = dose: 50.0 mg/kg/injection, schedule: Q01DX009 (ip), vehicle: Klucel (hydroxypropylcellulose) (HPC)
[14] = dose: 12.5 mg/kg/injection, schedule: Q01DX009 (ip), vehicle: saline
[15] = dose: 25.0 mg/kg/injection, schedule: Q01DX009 (ip), vehicle: Klucel (hydroxypropylcellulose) (HPC)
[16] = dose: 100.0 mg/kg/injection, schedule: Q01DX009 (ip), vehicle: saline with Tween-80
[17] = dose: 100.0 mg/kg/injection, schedule: Q04DX002 (ip), vehicle: saline with Tween-80
[18] = dose: 200.0 mg/kg/injection, schedule: Q04DX002 (ip), vehicle: saline with Tween-80
[19] = dose: 400.0 mg/kg/injection, schedule: Q04DX002 (ip), vehicle: saline with Tween-80

Measured: T/C

Oc1ccc(C2(CCl)OCCO2)cc1
inactive: dose: 25.0 mg/kg/injection, schedule: Q01DX001 (ip), vehicle: saline with Tween-80 98 % of control | dose: 50.0 mg/kg/injection, schedule: Q01DX001 (ip), vehicle: saline with Tween-80 104 % of control | [1] 107 % of control

COc1cc(/C=N/N=C(N)N)cc(I)c1O
inactive: dose: 15.0 mg/kg/injection, schedule: Q01DX Z (ip), vehicle: carboxymethylcellulose (CMC) 100 % of control | dose: 30.0 mg/kg/injection, schedule: Q01DX Z (ip), vehicle: carboxymethylcellulose (CMC) 106 % of control | dose: 30.0 mg/kg/injection, schedule: Q01DX Z (oral), vehicle: carboxymethylcellulose (CMC) 102 % of control | dose: 60.0 mg/kg/injection, schedule: Q01DX Z (ip), vehicle: carboxymethylcellulose (CMC) 112 % of control | dose: 60.0 mg/kg/injection, schedule: Q01DX Z (oral), vehicle: carboxymethylcellulose (CMC) 95 % of control | dose: 120.0 mg/kg/injection, schedule: Q01DX Z (oral), vehicle: carboxymethylcellulose (CMC) 98 % of control

Cc1ccc(C[n+]2cccc(NC(=O)COc3ccc(Cl)c(Cl)c3)c2)cc1
inactive: [2] 95 % of control | [3] 93 % of control | [4] 98 % of control

CCOP(=O)(Nc1ccc2c(c1)/C(=N/NC(N)=S)c1ccccc1-2)OCC
inactive: dose: 50.0 mg/kg/injection, schedule: Q01DX001 (ip), vehicle: carboxymethylcellulose (CMC) 100 % of control | dose: 100.0 mg/kg/injection, schedule: Q01DX001 (ip), vehicle: carboxymethylcellulose (CMC) 94 % of control | dose: 200.0 mg/kg/injection, schedule: Q01DX001 (ip), vehicle: carboxymethylcellulose (CMC) 96 % of control | dose: 400.0 mg/kg/injection, schedule: Q01DX001 (ip), vehicle: carboxymethylcellulose (CMC) 89 % of control

CC(Br)C(=O)OCc1ccccc1 (configuration not stated)
inactive: dose: 100.0 mg/kg/injection, schedule: Q01DX009 (ip), vehicle: saline 91 % of control | dose: 200.0 mg/kg/injection, schedule: Q01DX009 (ip), vehicle: saline 91 % of control | dose: 400.0 mg/kg/injection, schedule: Q01DX009 (ip), vehicle: saline 93 % of control

C/C(=N\N=C(/C)c1ccc(Cl)cc1)c1ccc(Cl)cc1
inactive: [5] 87 % of control | [6] 89 % of control and 95 % of control | [7] 89 % of control and 96 % of control | [8] 87 % of control | [9] 86 % of control and 95 % of control | [10] 89 % of control and 102 % of control | [11] 97 % of control | dose: 400.0 mg/kg/injection, schedule: Q01DX009 (ip), vehicle: Klucel (hydroxypropylcellulose) (HPC) 94 % of control | [12] 98 % of control and 93 % of control

O=C(c1ccccc1)c1cccc(Cl)c1
inactive: [13] 105 % of control | dose: 100.0 mg/kg/injection, schedule: Q01DX001 (ip), vehicle: saline 98 % of control | [6] 101 % of control | dose: 200.0 mg/kg/injection, schedule: Q01DX001 (ip), vehicle: saline 96 % of control | [9] 100 % of control | dose: 400.0 mg/kg/injection, schedule: Q01DX001 (ip), vehicle: saline 93 % of control

CCCCCCCCCCCCCC[N+](C)(C)CCCCCCCCCCCCCC
inactive: [14] 108 % of control | dose: 12.5 mg/kg/injection, schedule: Q04DX003 (ip), vehicle: saline 104 % of control | dose: 25.0 mg/kg/injection, schedule: Q01DX009 (ip), vehicle: saline 106 % of control | dose: 25.0 mg/kg/injection, schedule: Q04DX003 (ip), vehicle: saline 105 % of control | dose: 50.0 mg/kg/injection, schedule: Q01DX009 (ip), vehicle: saline 90 % of control | dose: 50.0 mg/kg/injection, schedule: Q04DX003 (ip), vehicle: saline 102 % of control

c1cnc[c]([Hg][c]2cccnc2)c1
inactive: dose: 12.5 mg/kg/injection, schedule: Q01DX009 (ip), vehicle: Klucel (hydroxypropylcellulose) (HPC) 91 % of control | dose: 12.5 mg/kg/injection, schedule: Q04DX002 (ip), vehicle: Klucel (hydroxypropylcellulose) (HPC) 98 % of control | [15] 88 % of control | dose: 25.0 mg/kg/injection, schedule: Q04DX002 (ip), vehicle: Klucel (hydroxypropylcellulose) (HPC) 98 % of control | [13] 95 % of control | dose: 50.0 mg/kg/injection, schedule: Q04DX002 (ip), vehicle: Klucel (hydroxypropylcellulose) (HPC) 103 % of control

C=C1C(=O)OC2C1C(OC(=O)/C(=C/C)COC(C)=O)CC1(CO1)C1C(OC(=O)/C(=C/C)CO)C=C(C)C21 (configuration not stated)
inactive: [13] 93 % of control | [6] 93 % of control | [9] 86 % of control

CS(C)=O.CS(C)=O.CS(C)=O.[Cl][Rh]([Cl])[Cl]
inactive: dose: 6.25 mg/kg/injection, schedule: Q01DX009 (ip), vehicle: saline 106 % of control | [14] 98 % of control | dose: 15.0 mg/kg/injection, schedule: Q01DX009 (ip), vehicle: saline 107 % of control | dose: 40.0 mg/kg/injection, schedule: Q01DX009 (ip), vehicle: saline 104 % of control | dose: 100.0 mg/kg/injection, schedule: Q04DX003 (ip), vehicle: saline 96 % of control | dose: 200.0 mg/kg/injection, schedule: Q04DX003 (ip), vehicle: saline 89 % of control

COC(=O)c1ccc(OC(C)OCCCl)cc1 (configuration not stated)
inactive: dose: 100.0 mg/kg/injection, schedule: Q04DX002 (ip), vehicle: saline 93 % of control | dose: 200.0 mg/kg/injection, schedule: Q04DX002 (ip), vehicle: saline 96 % of control | dose: 400.0 mg/kg/injection, schedule: Q04DX002 (ip), vehicle: saline 96 % of control

O=C(Cc1ccccc1)NCc1ccco1
inactive: [15] 100 % of control | [13] 94 % of control | dose: 100.0 mg/kg/injection, schedule: Q04DX002 (ip), vehicle: Klucel (hydroxypropylcellulose) (HPC) 90 % of control

COC(OC)c1nc(N)[nH]c(=O)c1Cc1ccc(Br)cc1
inactive: [5] 105 % of control | [16] 93 % of control | [2] 106 % of control | [8] 108 % of control | dose: 200.0 mg/kg/injection, schedule: Q01DX009 (ip), vehicle: saline with Tween-80 102 % of control | [3] 97 % of control | [11] 108 % of control | dose: 400.0 mg/kg/injection, schedule: Q01DX009 (ip), vehicle: saline with Tween-80 96 % of control | [4] 97 % of control

CC(C)(C)c1ccc(O)cc1
inactive: [16] 89 % of control

O=C1C=C(Nc2ccc(N(CCCl)CCCl)cc2)c2ccccc2C1=O
inactive: [7] 107 % of control | [10] 114 % of control | [12] 95 % of control

Oc1cc2ccc3c(c2cc1O)CCc1cn[nH]c1-3
inactive: [1] 92 % of control | dose: 400.0 mg/kg/injection, schedule: Q01DX001 (ip), vehicle: saline with Tween-80 92 % of control

CCOC(=O)C(C(=O)OCC)C(=O)c1cccc2c1ccc1ccccc12
inactive: [17] 95 % of control | [18] 107 % of control | [19] 100 % of control

CCCCCCCCCCN=C(N)N/C(N)=N/S(=O)(=O)c1ccc(OCCC)cc1
inactive: [17] 100 % of control | [18] 110 % of control | [19] 107 % of control
